This is an account of results in patent publication US20080139520A1, “Altering cholesterol and fat uptake by novel allosteric inhibitors of pancreatic phospholipase A2” (priority 2006, published 2008).

Where only a bound is given, the exact number is not on record here.

One assay addresses T1, PLA2 K53W/W3F (Sus scrofa, UniProt P00592, R75W/W25F).
T1 construct: made in house
The assay can be described thus: Bile salt binding by Trp emission, K53W/W3F PLA2. More on the design: species or system pig. Particulars: read-out: KEB. Here is the method: (§1) Fluorescence emission spectrum or time course of the intensity change from tryptophan or the resonance energy transfer probe TMA-DPH were measured in the ratio mode on SLM-Aminco AB2 in a 1 cm cuvette [31, 32] in 1.6 ml stirred buffer containing 1 or 2 μM PLA2 in 10 mM Tris, 5 mM CaCl2 and 20 mM NaCl at pH 8.0 and 24° C. The slit-widths were 4 nm with excitation at 280.
(§2) As shown in [45], the binding of decylsulfate to the R site is accompanied by a modest increase in the emission intensity from Trp-3. […] As summarized in Table 2, the value of KEB depends on the position of Trp, although Hill coefficient remains 1. […] Note that KEB for the EB complex of ΔPLA2 is about 7-fold larger than that for PLA2.

A further assay deals with PLA2 R6M (Sus scrofa, UniProt P00592, R28M). The assay can be described thus: Bile salt binding by Trp emission, R6M PLA2. More on the design: species or system pig. As to conditions: read-out: KEB. Here is the method:
as §1, §2

A further assay deals with PLA2 K10M (Sus scrofa, UniProt P00592, K32M). The assay is described as follows: Bile salt binding by Trp emission, K10M PLA2. Particulars: read-out: KEB. More on the design: species or system pig. The procedure:
as §1, §2

The next assay deals with T2, PLA2 L19W/W3F (Sus scrofa, UniProt P00592, L41W/W25F).
T2 construct: made in house
T2 sequence (P00592 23-146 W25F/L41W): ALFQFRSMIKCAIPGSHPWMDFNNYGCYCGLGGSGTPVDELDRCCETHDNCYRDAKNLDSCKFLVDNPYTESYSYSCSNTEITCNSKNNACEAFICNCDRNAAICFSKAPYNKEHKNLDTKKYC
The assay is described as follows: Bile salt binding by Trp emission, L19W/W3F PLA2. More on the design: species or system pig. As to conditions: read-out: KEB. Here is the method:
as §1, §2

In the next assay the target is T3, PLA2 K56W/W3F (Sus scrofa, UniProt P00592, K78W/W25F).
T3 construct: made in house
T3 sequence (P00592 23-146 W25F/K78W): as the sequence (P00592 23-146 W25F/L41W) above, with W19L, K56W counted along it
The assay is described as follows: Bile salt binding by Trp emission, K56W/W3F PLA2. More on the design: species or system pig. As to conditions: read-out: KEB. Here is the method:
as §1, §2

A further assay concerns the target T4, PLA2 R6W/W3F (Sus scrofa, UniProt P00592, R28W/W25F).
T4 construct: made in house
The assay is described as follows: Bile salt binding by Trp emission, R6W/W3F PLA2. More on the design: species or system pig. As to conditions: read-out: KEB. The procedure:
as §1, §2

In another assay the target is T5, PLA2 K10W/W3F (Sus scrofa, UniProt P00592, K32W/W25F).
T5 construct: made in house
T5 sequence (P00592 23-146 W25F/K32W): as the sequence (P00592 23-146 W25F/L41W) above, with K10W, W19L counted along it
The assay is described as follows: Bile salt binding by Trp emission, K10W/W3F PLA2. More on the design: species or system pig. As to conditions: read-out: KEB. The procedure: as §1, §2

For a further assay, the target named is T6, WT (wild type) pig PLA2 (Sus scrofa, UniProt P00592).
T6 construct: made in house
T6 sequence (P00592 23-146): as the sequence (P00592 23-146 W25F/L41W) above, with F3W, W19L counted along it
The assay can be described thus: PLA2 catalyzed hydrolysis of sonicated DMPC vesicles with added bile salt (pH-stat). In kind it is biochemical. As to conditions: DMPC vesicles, pancreatic PLA2. The procedure:
Aqueous dispersion of phospholipid was sonicated in a bath type sonicator. Virtually transparent suspension was annealed for at least 4 hours at room temperature before use. Reaction progress for the PLA2 catalyzed hydrolysis of sonicated DMPC (1 mM) vesicles was measured by pH-stat titration (Radiometer) with 1 mM 2-aminopropanediol in 4 ml reaction buffer containing 5 mM CaCl2 for DMPC (or 0.5 mM for DMPM), 1 mM NaCl, […] atmosphere. Reaction was initiated by adding 0.1 μg enzyme in 1-10 μl solution. The pH stat method was also used for monitoring the rate of hydrolysis of DMPM (0.4 mM) vesicles in the presence of polymyxin [27-29], or of the mixed-micelles of POPC with bile salts in 1:2 ratio [13, 30].
Delay before the onset of the stationary phase of the PLA2 catalyzed reaction progress for the hydrolysis of zwitterionic phospholipids has been extensively characterized. […] The apparent rates in FIG. 3 were obtained from the initial slopes of such reaction progress during which <5% of the total substrate is hydrolyzed.
The CMC of the bile salts used in this study range between 0.8 to 5 mM.

The target in another assay is T7, PLA2 L2W/W3F (Sus scrofa, UniProt P00592, L24W/W25F).
T7 construct: made in house
T7 sequence (P00592 23-146 L24W/W25F): as the sequence (P00592 23-146 W25F/L41W) above, with L2W, W19L counted along it
The assay is described as follows: Bile salt binding by Trp emission, L2W/W3F PLA2. More on the design: species or system pig. Particulars: read-out: KEB. The procedure:
as §1, §2

The target of the next assay is T8, PLA2 M20W/W3F (Sus scrofa, UniProt P00592, M42W/W25F).
T8 construct: made in house
T8 sequence (P00592 23-146 W25F/M42W): as the sequence (P00592 23-146 W25F/L41W) above, with W19L, M20W counted along it
The assay is described as follows: Bile salt binding by Trp emission, M20W/W3F PLA2. More on the design: species or system pig. Particulars: read-out: KEB. The procedure: as §1, §2

Another assay addresses T9, PLA2 K87W/W3F (Sus scrofa, UniProt P00592, K109W/W25F).
T9 construct: made in house
The assay is described as follows: Bile salt binding by Trp emission, K87W/W3F PLA2. More on the design: species or system pig. As to conditions: read-out: KEB. The procedure:
as §1, §2

In a further assay the target is PLA2 R6M/K10M (Sus scrofa, UniProt P00592, K32M/R28M). The assay is described as follows: Bile salt binding by Trp emission, R6M/K10M PLA2. Particulars: read-out: KEB. More on the design: species or system pig. The procedure:
as §1, §2

In another assay the target is T10, PLA2 (3W)(WT) (Sus scrofa, UniProt P00592).
T10 construct: made in house
T10 sequence (P00592 23-146): as the sequence (P00592 23-146 W25F/L41W) above, with F3W, W19L counted along it
The assay is described as follows: Bile salt binding by Trp emission, (3W)(WT) PLA2. More on the design: species or system pig. As to conditions: read-out: KEB. Here is the method: as §1, §2

Sequence of PLA2 K10M (P00592 whole entry K32M): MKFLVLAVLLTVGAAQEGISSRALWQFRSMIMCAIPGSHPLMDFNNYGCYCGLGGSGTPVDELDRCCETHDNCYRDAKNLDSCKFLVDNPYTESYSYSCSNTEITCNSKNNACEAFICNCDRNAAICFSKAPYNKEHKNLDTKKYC
T9 sequence (P00592 23-146 W25F/K109W): as the sequence (P00592 23-146 W25F/L41W) above, with W19L, K87W counted along it
Sequence of PLA2 R6M (P00592 23-146 R28M): as the sequence (P00592 23-146 W25F/L41W) above, with F3W, R6M, W19L counted along it
T4 sequence (P00592 23-146 W25F/R28W): as the sequence (P00592 23-146 W25F/L41W) above, with R6W, W19L counted along it
T1 sequence (P00592 23-146 W25F/R75W): as the sequence (P00592 23-146 W25F/L41W) above, with W19L, R53W counted along it
Sequence of PLA2 R6M/K10M (P00592 23-146 R28M/K32M): as the sequence (P00592 23-146 W25F/L41W) above, with F3W, R6M, K10M, W19L counted along it

Turning to `C[C@H](CCC(=O)NCCS(=O)(=O)O)[C@H]1CC[C@H]2[C@@H]3CC[C@@H]4C[C@H](O)CC[C@]4(C)[C@H]3C[C@H](O)[C@]12C` [TDOC, taurodeoxycholate], the Kd on PLA2 K53W/W3F was 33 µM; on PLA2 R6M it was above 100 µM; at PLA2 K10M it was above 100 µM; on PLA2 L19W/W3F, 44 µM; at PLA2 K56W/W3F it was 35 µM; on PLA2 R6W/W3F, 4 µM. Also, the Kd at PLA2 K10W/W3F worked out at 10 µM; at PLA2 L2W/W3F, 20 µM; at PLA2 M20W/W3F, 2000 nM; at PLA2 K87W/W3F it was 2000 nM; on PLA2 R6M/K10M, 10 µM; at PLA2 (3W)(WT), 30 µM. Also, the “effect of bile salt on the rate of hydrolysis (monophasic/biphasic)” value at WT (wild type) pig PLA2 is “biphasic effect”.
